Results reported in US10681909B2, “Herbicidal triazoles” (FMC Corporation, priority 2014, dated 2020).

Legend:
pigweed [1] = experiment: Test C postemergence; format: in vivo, Amaranthus retroflexus
From the text: (§1) Seeds of plant species selected from blackgrass (Alopecurus myosuroides), ryegrass, Italian (Italian ryegrass, Lolium multiflorum), wheat (winter wheat, Triticum aestivum), galium (catchweed bedstraw, Galium aparine), corn (Zea mays), crabgrass, large (large crabgrass, Digitaria sanguinalis), foxtail, giant, (giant foxtail, Setaria faberii), johnsongrass (Sorghum halepense), lambsquarters (Chenopodium album), morningglory (Ipomoea coccinea), nutsedge, yellow (yellow nutsedge, Cyperus esculentus), pigweed (Amaranthus retroflexus), ragweed (common ragweed, Ambrosia elatior), soybean (Glycine max), barnyardgrass (Echinochloa crus-galli), oilseed rape (Brassica napus), waterhemp (common waterhemp, Amaranthus rudis), and velvetleaf (Abutilon theophrasti) were planted into a blend of loam soil and sand and treated preemergence with test chemicals formulated in a non-phytotoxic solvent mixture which included a surfactant. At the same time, plants selected from these crop and weed species and also chickweed (common chickweed, Stellaria media), oat, wild (wild oat, Avena fatua), and kochia (Kochia scoparia), were planted in pots containing Sunshine Redi-Earth® planting medium comprising spaghnum peat moss, vermiculite, starter nutrients and dolomitic limestone and treated with postemergence applications of test chemicals formulated in the same manner. Plants ranged in height from 2 to 18 cm (1- to 4-leaf stage) for postemergence treatments. […] A dash (-) response means no test result.

johnsongrass = experiment: Test C postemergence; format: in vivo, Sorghum halepense
From the text: as §1

oat, wild = experiment: Test C postemergence; format: in vivo, Avena fatua
From the text: as §1

blackgrass = experiment: Test C postemergence; format: in vivo, Alopecurus myosuroides
From the text: as §1

wheat (winter wheat) = experiment: Test C postemergence; format: in vivo, Triticum aestivum
From the text: as §1

foxtail, giant = experiment: Test A preemergence; format: in vivo, Setaria faberii; conditions: 0 to 100 scale (0 no effect, 100 complete control)
In short: (§2)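 Pre- and postemergence spray tests in a loam soil–sand mixture: seeded soil received a directed spray, while established seedlings 2–10 cm high at the one- to two-leaf stage were treated over the top. Compounds were carried in non-phytotoxic solvent with surfactant.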

soybean = experiment: Test C postemergence; format: in vivo, Glycine max
From the text: as §1

galium = experiment: Test C postemergence; format: in vivo, Galium aparine
From the text: as §1

rice = experiment: Test B flooded paddy test; format: in vivo, Oryza sativa; conditions: 250 g ai/ha, applied to paddy water at 2-leaf stage, visual rating after 13 to 15 d, scale 0 (no effect) to 100 (complete control)
In short: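 Pots were flooded to 3 cm above the soil at treatment, and compounds were applied directly into the paddy water. That depth was held throughout. After 13 to 15 d in a greenhouse, plants were rated visually against untreated controls.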

chickweed = experiment: Test C postemergence; format: in vivo, Stellaria media
From the text: as §1

lambsquarters = experiment: Test C postemergence; format: in vivo, Chenopodium album
From the text: as §1

pigweed [2] = experiment: Test A preemergence; format: in vivo, Amaranthus retroflexus; conditions: 0 to 100 scale (0 no effect, 100 complete control)
In short: as §2

In the case of `CCCOc1nc(-c2ccccc2)nn1Cc1ccnc(C(F)(F)F)c1` [Compound 33], the “Plant response rating (scale of 0 to 100 where 0 is no effect and 100 is complete control)” value (pigweed [1]; 31 g ai/ha) is reported as 95, the “Plant response rating (scale of 0 to 100 where 0 is no effect and 100 is complete control)” value (pigweed [1]; 62 g ai/ha) is reported as 90 and the “Plant response rating (scale of 0 to 100 where 0 is no effect and 100 is complete control)” value (pigweed [1]; 125 g ai/ha) is reported as 98. For the same molecule, the “Plant response rating (scale of 0 to 100 where 0 is no effect and 100 is complete control)” value (pigweed [1]; 250 g ai/ha) was 98, the “Plant response rating (scale of 0 to 100 where 0 is no effect and 100 is complete control)” value (johnsongrass; 31 g ai/ha) was 5 and the “Plant response rating (scale of 0 to 100 where 0 is no effect and 100 is complete control)” value (johnsongrass; 62 g ai/ha) was 5. For the same molecule, the “Plant response rating (scale of 0 to 100 where 0 is no effect and 100 is complete control)” value (johnsongrass; 125 g ai/ha) was 10, the “Plant response rating (scale of 0 to 100 where 0 is no effect and 100 is complete control)” value (johnsongrass; 250 g ai/ha) was 15 and the “Plant response rating (scale of 0 to 100 where 0 is no effect and 100 is complete control)” value (oat, wild; 31 g ai/ha) was 10. For the same molecule, the “Plant response rating (scale of 0 to 100 where 0 is no effect and 100 is complete control)” value (oat, wild; 62 g ai/ha) was 10, the “Plant response rating (scale of 0 to 100 where 0 is no effect and 100 is complete control)” value (oat, wild; 125 g ai/ha) was 20 and the “Plant response rating (scale of 0 to 100 where 0 is no effect and 100 is complete control)” value (oat, wild; 250 g ai/ha) was 25. The “Plant response rating (scale of 0 to 100 where 0 is no effect and 100 is complete control)” value (blackgrass; 31 g ai/ha) was 5, the “Plant response rating (scale of 0 to 100 where 0 is no effect and 100 is complete control)” value (blackgrass; 62 g ai/ha) was 5 and the “Plant response rating (scale of 0 to 100 where 0 is no effect and 100 is complete control)” value (blackgrass; 125 g ai/ha) was 10. The “Plant response rating (scale of 0 to 100 where 0 is no effect and 100 is complete control)” value (blackgrass; 250 g ai/ha) was 10, the “Plant response rating (scale of 0 to 100 where 0 is no effect and 100 is complete control)” value (wheat (winter wheat); 31 g ai/ha) was 5 and the “Plant response rating (scale of 0 to 100 where 0 is no effect and 100 is complete control)” value (wheat (winter wheat); 62 g ai/ha) was 5. The “Plant response rating (scale of 0 to 100 where 0 is no effect and 100 is complete control)” value (wheat (winter wheat); 125 g ai/ha) was 5, the “Plant response rating (scale of 0 to 100 where 0 is no effect and 100 is complete control)” value (wheat (winter wheat); 250 g ai/ha) was 5 and the “Plant response rating, Foxtail, Giant” value (foxtail, giant; 125 g ai/ha) was 90. The “Plant response rating, Foxtail, Giant” value (foxtail, giant; 500 g ai/ha, approx. 10 d) was 100, the “Plant response rating (scale of 0 to 100 where 0 is no effect and 100 is complete control)” value (soybean; 31 g ai/ha) was 25 and the “Plant response rating (scale of 0 to 100 where 0 is no effect and 100 is complete control)” value (soybean; 62 g ai/ha) was 35. For the same molecule, the “Plant response rating (scale of 0 to 100 where 0 is no effect and 100 is complete control)” value (soybean; 125 g ai/ha) was 55, the “Plant response rating (scale of 0 to 100 where 0 is no effect and 100 is complete control)” value (soybean; 250 g ai/ha) was 65 and the “Plant response rating (scale of 0 to 100 where 0 is no effect and 100 is complete control)” value (galium; 31 g ai/ha) was 55. The “Plant response rating (scale of 0 to 100 where 0 is no effect and 100 is complete control)” value (galium; 62 g ai/ha) was 60, the “Plant response rating (scale of 0 to 100 where 0 is no effect and 100 is complete control)” value (galium; 125 g ai/ha) was 75 and the “Plant response rating (scale of 0 to 100 where 0 is no effect and 100 is complete control)” value (galium; 250 g ai/ha) was 80. For the same molecule, the “Plant response rating, Rice, Flood” value (rice) was 0, the “Plant response rating (scale of 0 to 100 where 0 is no effect and 100 is complete control)” value (chickweed; 31 g ai/ha) was 55 and the “Plant response rating (scale of 0 to 100 where 0 is no effect and 100 is complete control)” value (chickweed; 62 g ai/ha) was 60. For the same molecule, the “Plant response rating (scale of 0 to 100 where 0 is no effect and 100 is complete control)” value (chickweed; 125 g ai/ha) was 60, the “Plant response rating (scale of 0 to 100 where 0 is no effect and 100 is complete control)” value (chickweed; 250 g ai/ha) was 80 and the “Plant response rating (scale of 0 to 100 where 0 is no effect and 100 is complete control)” value (lambsquarters; 31 g ai/ha) was 80. For the same molecule, the “Plant response rating (scale of 0 to 100 where 0 is no effect and 100 is complete control)” value (lambsquarters; 62 g ai/ha) was 85, the “Plant response rating (scale of 0 to 100 where 0 is no effect and 100 is complete control)” value (lambsquarters; 125 g ai/ha) was 85 and the “Plant response rating (scale of 0 to 100 where 0 is no effect and 100 is complete control)” value (lambsquarters; 250 g ai/ha) was 90. For the same molecule, the “Plant response rating, Pigweed” value (pigweed [2]; 125 g ai/ha) was 90 and the “Plant response rating, Pigweed” value (pigweed [2]; 500 g ai/ha, approx. 10 d) was 90.
